Laboratory results published in article PMC11181322, “Copper(II) Complexes with Isomeric Morpholine-Substituted 2-Formylpyridine Thiosemicarbazone Hybrids as Potential Anticancer Drugs Inhibiting Both Ribonucleotide Reductase and Tubulin Polymerization: The Morpholine Position Matters” (Journal of Medicinal Chemistry, 2024).

How the values were obtained:
MES-SA cells [1] = assay: Cell cycle analysis, MES-SA; type: cell-based, human; conditions: for G0/G1 / G2/M / S: MES-SA
Description: (§1) Cell cycle arrest in S-phase has been observed for Triapine analogues at concentrations ranging from 0.25 to 5.0 μM,[82],[83] in line with a mechanism of action relying on RNR inhibition.
(§2) Figure S18. Cell cycle arrest for (a) proligand H2L4 and (b) complex 4 in MES-SA cells, as
(§3) well as for (c) proligand H2L4 and (d) complex 4 in the MES-SA/Dx5 cancer cell line.
(§4) Table S4. Cell cycle arrest for proligand H2L4 and complex 4 in the MES-SA and MES-
(§5) SA/Dx5 cancer cell lines.
(§6) H2L4 (MES-SA) H2L4 (MES-SA/Dx5) complex 4 (MES-SA) complex 4 (MES-SA/Dx5)
(§7) Table S5. Cell cycle arrest for proligand H2L6 and complex 6 in the MES-SA and MES-
(§8) H2L6 (MES-SA) H2L6 (MES-SA/Dx5) complex 6 (MES-SA) complex 6 (MES-SA/Dx5)
(§9) (1 picture or pasted object on this page, not shown here)

[2] = Redox reaction of the copper(II) complexes with GSH (UV–vis, anoxic); type: physicochemical; conditions: pH 7.4 (50 mM HEPES); ccomplex = 25 μM; cGSH = 1.25 mM; pure water; 25 °C
Description: The direct reduction of the copper(II) complexes with the antioxidant GSH was investigated in anoxic aqueous solution at pH 7.4 by UV–vis spectrophotometry. At this pH, the complex [Cu(HL)]^+ is assumed to predominate according to the speciation studies (vide supra). The spectral changes were monitored in the wavelength range 250–550 nm by using a large excess of GSH (50 equiv). In this wavelength range, the spectral changes are due to the absorption of the metal complex and the ligand.
These changes imply that, after reduction in the presence of excess GSH, the generated copper(I) complex is not stable and liberates the free TSC ligand. […] The time-dependent absorbance changes are shown for all the studied systems in Figure 4b. The observed rate constants (kobs) were calculated (Table 2) as a semiquantitative description of the reaction kinetics. […] The obtained kobs values fall into the range for Triapine (0.10 min^–1), 2-pyridinecarboxaldehyde TSC (0.041 min^–1), and N-monomethylated N-methyl-Triapine (0.077 min^–1), measured under similar conditions.[67] To find out whether this slightly different kinetics for 6 and 3–5 is in accordance with their reduction potentials, cyclic voltammetry was performed.
The redox reaction of the copper(II) complexes with GSH and ascorbic acid was studied at 25.0 ± 0.1 °C on a Hewlett-Packard 8452A diode array spectrophotometer using a special, tightly closed tandem cuvette (Hellma Tandem Cell, 238-QS). The reactants were separated until the reaction was triggered. Both isolated pockets of the cuvette were completely deoxygenated by bubbling a stream of Ar for 10 min before mixing the reactants. Spectra were recorded before and then immediately after the mixing, and changes were followed until no further absorbance change was observed. One of the isolated pockets contained the reducing agent, and the other contained the complex. Their final concentrations were 1250 and 25 μM, respectively. The pH of all the solutions was adjusted to 7.40 by 50 mM HEPES buffer. The ionic strength of the solution was 0.1 M (KCl). The stock solutions of the reducing agents and the complexes were freshly prepared every day. During the calculations, the absorbance (A) – time (t) curves were fitted and analyzed at the λmax of the complex. (A0 – Afinal) × e^(−a×t) + Afinal was the fitting equation used, where the A0, Afinal, and a parameters were refined and accepted at the minimal value of the weighted sum of squared residuals (difference between the measured and calculated absorbance values) at the given wavelength. Then, observed rate constants (kobs) of the redox reaction were obtained from the data points of the simulated absorbance–time curves as the slope of the ln(A/A0) vs time plots.

[3] = pKa of the copper(II) complexes (UV–vis / pH-potentiometric titrations); conditions: 30% (v/v) DMSO/H2O, 25 °C
Description: The solution speciation of copper(II) complexes with H2L^3–H2L^6 was studied primarily by UV–vis spectrophotometric titrations in a 30% (v/v) DMSO/H2O solvent mixture as a function of pH.
An Agilent Carry 8454 diode array spectrophotometer was used to record the UV–vis spectra in the interval 200–800 nm. The path length was 1 cm. Proton dissociation constants (pKa) of the proligands and complexes were calculated by the computer program PSEQUAD.[94] Spectrophotometric titrations were performed on samples containing the proligands at a 50–100 μM concentration with a KOH solution in the presence of 0.1 M KCl at 25.0 ± 0.1 °C in the pH range from 2 to 11.5 in a 30% (v/v) DMSO/H2O solvent mixture, and the metal-to-ligand ratios were 1:0, 1:1, and 1:2. An Orion 710A pH meter equipped with a Metrohm combined electrode (type 6.0234.100) and a Metrohm 665 Dosimat buret were used for the titrations. […] Ar was also passed over the solutions during the titrations. Measurements were carried out in the range ca. 1.0–2.0 by preparing individual samples, in which KCl was partially or completely replaced by HCl, and pH values were calculated from the strong acid content. The conditional stability constants (K′) of the copper(II) complexes were calculated at pH 5.90 based on the spectral changes via the displacement reaction with EDTA in the presence 50 mM MES and 0.1 M KCl in water or in 30% (v/v) DMSO/H2O. In the competition experiments, the samples contained 25 μM copper(II) and 25 μM proligand, and the concentration of EDTA was varied from 0 to 400 μM. The conditional stability constants of the metal complexes (K′) and the individual spectra of the species were calculated by the computer program PSEQUAD.[94]

MES-SA/Dx5 cells [4] = assay: Cell cycle analysis, MES-SA/Dx5; type: cell-based, human
Description: as §1, §2, §3, §4, §5, §6, §7, §8, §9

tubulin = assay: Inhibition of [3H]colchicine binding to tubulin; conditions: for inhibition of colchicine binding % inhibition ± SD: tubulin 0.5 μM, colchicine 5 μM
MES-SA cells [5] = assay: Intracellular ROS generation, DCF-DA assay, MES-SA; type: cell-based, human; conditions: 25 μM, 4 h treatment
Description: (§10) ROS accumulation was evaluated in both the MES-SA and MES-SA/Dx5 cell lines by using 2′,7′-dichlorodihydrofluorescein diacetate (H2DCF-DA) as a probe. This compound enters the cells by passive diffusion, and after oxidation, it is converted to the highly fluorescent 2′,7′-dichlorofluorescein (DCF), enabling the estimation of intracellular ROS levels. ROS generation was measured after a 4 h treatment with 25 μM H2L^6 or 6; tert-butylhydroperoxide (TBHP, 25 μM) was used as a positive control.
(§11) Figure 6 Intracellular ROS generation measured by the DCF-DA assay in MES-SA (filled bars) and MES-SA/Dx5 (lattice bars) cells, after a 4 h treatment with the indicated compounds at 25 μM: H2L^6 (gray), complex 6 (yellow), Triapine (green), and TBHP (brown). Values indicate fold change relative to the fluorescence of the cells treated with fluorescent probe alone (orange bars), following normalization to the initial fluorescence at the beginning of the incubation. Paired t test to the medium control was calculated; […]; **P < 0.01. Values were calculated from at least three independent experiments.
(§12) The human uterine sarcoma cell lines MES-SA and the doxorubicin selected MES-SA-Dx5 were obtained from ATCC (MES-SA: No. CRL-1976, MES-SA/Dx5: No. CRL-1977) and were used for the intracellular ROS generation studies. […]

MES-SA/Dx5 cells [6] = assay: Intracellular ROS generation, DCF-DA assay, MES-SA/Dx5; type: cell-based, human; conditions: 25 μM, 4 h treatment
Description: as §10, §11, §12

[7] = cell line not given (figures: MES-SA and MES-SA/Dx5)

Row | Compound | G0/G1 (MES-SA cells [1]; 2 µM) [%] | G2/M (MES-SA cells [1]; 2 µM) [%] | S (MES-SA cells [1]; 2 µM) [%] | G0/G1 (MES-SA cells [1]; 4 µM) [%] | G2/M (MES-SA cells [1]; 4 µM) [%] | S (MES-SA cells [1]; 4 µM) [%] | G0/G1 (MES-SA cells [1]; 8 µM) [%] | G2/M (MES-SA cells [1]; 8 µM) [%] | S (MES-SA cells [1]; 8 µM) [%] | kobs, redox reaction with GSH [2] [min^–1] | pKa[Cu(H2L)]2+ ([3]; UV–vis spectrophotometry) | pKa[Cu(H2L)]2+ ([3]; pH potentiometry) | G0/G1 (MES-SA/Dx5 cells [4]; MES-SA/Dx5, 2 µM) [%] | G2/M (MES-SA/Dx5 cells [4]; MES-SA/Dx5, 2 µM) [%] | S (MES-SA/Dx5 cells [4]; MES-SA/Dx5, 2 µM) [%] | G0/G1 (MES-SA/Dx5 cells [4]; MES-SA/Dx5, 4 µM) [%] | G2/M (MES-SA/Dx5 cells [4]; MES-SA/Dx5, 4 µM) [%] | S (MES-SA/Dx5 cells [4]; MES-SA/Dx5, 4 µM) [%] | G0/G1 (MES-SA/Dx5 cells [4]; MES-SA/Dx5, 8 µM) [%] | G2/M (MES-SA/Dx5 cells [4]; MES-SA/Dx5, 8 µM) [%] | other results
1 | Cc1cc(NC(=NN=Cc2cc(CN3CCOCC3)ccn2)[S][Cu][Cl])cc(C)c1O [complex 4, [Cu(HL^4)Cl]·1.5H2O] | 63 | 21 | 16 | 56 | 25 | 19 | 50 | 30 | 20 | 0.079 ± 0.019 | 4.48 ± 0.01 | 4.60 ± 0.02 | 48 | 32 | 20 | 43 | 36 | 21 | 47 | 36 | cell cycle effect (MES-SA cells [1]; [7]): gradually increased the G2/M ratio in a concentration-dependent manner; S (MES-SA/Dx5 cells [4]; MES-SA/Dx5, 8 µM): 16%
2 | Cc1cc(NC(=NN=Cc2ccc(CN3CCOCC3)cn2)[S][Cu][Cl])cc(C)c1O [complex 5, [Cu(HL^5)Cl]·2.5H2O] |  |  |  |  |  |  |  |  |  | 0.058 ± 0.010 | 4.75 ± 0.01 | 4.95 ± 0.04 |  |  |  |  |  |  |  |  | 
3 | Cc1cc(NC(=NN=Cc2cccc(CN3CCOCC3)n2)[S][Cu][Cl])cc(C)c1O [complex 6, [Cu(HL^6)Cl]·H2O] | 74 | 17 | 9 | 35 | 55 | 11 | 24 | 68 | 8 | 0.165 ± 0.011 |  |  | 53 | 35 | 12 | 39 | 48 | 12 | 21 | 68 | concentrations inducing G2/M-phase arrest (MES-SA cells [1]; [7]): ≥ 4 µM; inhibition of colchicine binding % inhibition ± SD (tubulin; 5 μM inhibitor): 5.8 ± 5%; inhibition of colchicine binding % inhibition ± SD (tubulin; 25 μM inhibitor): 33 ± 2%; fold less potent than CA-4 in inhibiting [3H]colchicine binding (tubulin; at the 5 μM concentration): 17 fold; Intracellular ROS generation (MES-SA cells [5]): significant ROS induction; S (MES-SA/Dx5 cells [4]; MES-SA/Dx5, 8 µM): 11%; Intracellular ROS generation (MES-SA/Dx5 cells [6]): significant ROS induction
